# According to ChEMBL document CHEMBL1131370, “Identification of potent inhibitors of Plasmodium falciparum plasmepsin II from an encoded statine combinatorial library” (Bioorg Med Chem Lett, 1998):
# Columns and labels:
# Cathepsin D = Cathepsin D (Homo sapiens, UniProt P07339); experiment: Inhibitory activity against cathepsin D
# Plasmepsin II [1] = target: T1, Plasmepsin II (Plasmodium falciparum, UniProt P46925); experiment: In vitro inhibition of plasmepsin-2 from Plasmodium falciparum.
# Plasmodium falciparum = experiment: Inhibitory activity against Plasmodium falciparum; assay type: functional, organism-based
# Plasmepsin II [2] = target: T1, Plasmepsin II; experiment: Inhibitory activity against plasmepsin-2 from Plasmodium falciparum
# T1 sequence (P46925 whole entry): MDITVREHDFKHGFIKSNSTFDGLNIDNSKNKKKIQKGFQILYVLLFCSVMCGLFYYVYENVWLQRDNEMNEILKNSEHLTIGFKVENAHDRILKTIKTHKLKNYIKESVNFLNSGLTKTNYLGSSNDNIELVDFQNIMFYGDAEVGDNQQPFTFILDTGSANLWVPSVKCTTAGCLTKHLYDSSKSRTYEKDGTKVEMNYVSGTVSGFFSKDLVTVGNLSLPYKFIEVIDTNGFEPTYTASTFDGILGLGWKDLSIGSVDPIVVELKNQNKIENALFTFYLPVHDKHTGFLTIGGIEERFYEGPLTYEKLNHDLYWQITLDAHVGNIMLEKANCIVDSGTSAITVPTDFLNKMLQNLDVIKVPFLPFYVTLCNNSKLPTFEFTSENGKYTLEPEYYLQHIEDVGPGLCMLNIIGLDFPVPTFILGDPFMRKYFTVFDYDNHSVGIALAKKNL
# Cathepsin D, sequence (P07339 65-162 limits assumed): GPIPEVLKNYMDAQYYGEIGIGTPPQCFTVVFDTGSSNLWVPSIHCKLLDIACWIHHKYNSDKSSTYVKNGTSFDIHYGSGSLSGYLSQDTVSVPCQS
# Cathepsin D, sequence (P07339 169-412 limits assumed): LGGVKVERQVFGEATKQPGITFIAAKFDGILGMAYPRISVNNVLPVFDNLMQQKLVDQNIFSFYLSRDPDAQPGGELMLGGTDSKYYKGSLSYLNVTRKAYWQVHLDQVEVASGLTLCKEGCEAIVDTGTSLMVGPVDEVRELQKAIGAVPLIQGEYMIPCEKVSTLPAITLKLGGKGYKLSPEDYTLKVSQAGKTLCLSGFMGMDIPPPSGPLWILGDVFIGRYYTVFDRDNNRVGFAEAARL
Compound,Ki (Cathepsin D) [nM],Ki (Plasmepsin II [1]) [nM],IC50 (Cathepsin D) [nM],IC50 (Plasmodium falciparum) [nM],Ki (Plasmepsin II [2]) [nM]
CCCCNC(=O)CC(O)C(Cc1ccccc1)NC(=O)[C@@H](NC(=O)c1ccc(OC)cc1OC)c1ccccc1 (stereo in doubt; form 1),2100,590,,,
CCCCNC(=O)CC(O)C(Cc1ccccc1)NC(=O)[C@@H](NC(=O)COc1ccc2ccccc2c1)[C@@H](C)CC (some centres not stated),,110,500,~10000,
CCCCNC(=O)CC(O)C(Cc1ccccc1)NC(=O)[C@H](CCC(N)=O)NC(=O)COc1ccc2ccccc2c1 (some centres not stated),200,> 30000,,,
CCCCNC(=O)CC(O)C(Cc1ccccc1)NC(=O)[C@@H](NC(=O)COc1ccc2ccccc2c1)c1ccccc1 (some centres not stated),200,560,,,
CCCCNC(=O)CC(O)C(Cc1ccccc1)NC(=O)[C@H](NC(=O)COc1ccc2ccccc2c1)c1ccccc1 (some centres not stated),700,15000,,,
CCC(C)C(NC(=O)c1ccc(CNC)cc1)C(=O)NC(CC(C)C)C(O)CC(=O)NCCCc1ccccc1 (configuration not stated),1300,440,,,
CCCCNC(=O)CC(O)C(Cc1ccccc1)NC(=O)[C@@H](NC(=O)CN1CCC(C(N)=O)(c2ccccc2)CC1)[C@@H](C)CC (some centres not stated),,410,5500,~20000,
CCCCNC(=O)CC(O)C(Cc1ccccc1)NC(=O)[C@@H](NC(=O)c1ccc(OC)cc1OC)C(C)C (some centres not stated),1600,500,,,
CCCCNC(=O)CC(O)C(CC(C)C)NC(=O)[C@H](CC(C)C)NC(=O)COc1ccc2ccccc2c1 (some centres not stated),920,5600,,,
CCCCNC(=O)CC(O)C(Cc1ccccc1)NC(=O)[C@@H](NC(=O)c1ccc(OC)cc1OC)c1ccccc1 (stereo in doubt; form 2),6200,> 30000,,,
CCCCNC(=O)CC(O)C(Cc1ccccc1)NC(=O)[C@@H](NC(=O)c1ccc(OC)cc1OC)[C@@H](C)CC (some centres not stated),2400,220,,,
CCCCNC(=O)CC(O)C(Cc1ccccc1)NC(=O)[C@@H](NC(=O)c1ccc(CN2CCCC2)cc1)[C@@H](C)CC (some centres not stated),,220,1200,~10000,
CCCCNC(=O)CC(O)C(CC(C)C)NC(=O)[C@@H](NC(=O)Cc1ccc2ccccc2c1)[C@@H](C)CC (some centres not stated),320,,,,50
CCCCNC(=O)CC(O)C(CC(C)C)NC(=O)[C@H](Cc1ccccc1)NC(=O)COc1ccc2ccccc2c1 (some centres not stated),1300,12000,,,
CCCCNC(=O)CC(O)C(Cc1ccccc1)NC(=O)[C@@H](NC(=O)Cc1ccc2ccccc2c1)[C@@H](C)CC (some centres not stated),50,90,,,
CCCCNC(=O)CC(O)C(CC(C)C)NC(=O)[C@@H](NC(=O)COc1ccc2ccccc2c1)c1ccccc1 (some centres not stated),110,5800,,,
CC[C@H](C)[C@H](NC(=O)CN1CCC(C(N)=O)(c2ccccc2)CC1)C(=O)NC(Cc1ccccc1)C(O)CC(=O)NCCCc1ccccc1 (some centres not stated),3900,600,,,
